# Like-named read-outs stand apart in the source and are kept apart here.
# Key:
# [1] = tested on: lymphocytes; assay type: in vivo, human
# [2] = tested on: IL-2 production by ConA-stimulated splenocytes; assay: IL-2 production by ConA-stimulated splenocytes; assay type: in vivo, mice
# [3] = tested on: neutrophils; assay: Concentration and functional activity of neutrophils (phagocytosis, lysosomal activity, spontaneous and induced HCT test) before and after vaccination; assay type: in vivo, human
# [4] = tested on: thymic cells; assay: Expression of T-cell subpopulation and activation markers (CD69, CD25) on thymic cells, flow cytometry; assay type: in vivo, mice; settings: for CD25-positive cells, % / CD69-positive, %: thymic cells cultured in vitro 48 hours
# Excerpt: Materials and Methods: Eighteen (18) to twenty (20) gram (g) male mice, purchased from the Rappolovo Animal Facility, Russia, were used in the studies described below. C57BL/6 (B6) mice were used to evaluate the effect of SCV-07 in non-immunized mice. CBAxC57BL/6 (F1) mice were used for studies of the effects of SCV-07 on the antigen-specific immune response. Mice were kept under the standard animal facility conditions and were provided with a standard diet and water ad libitum. Each treatment group included 4-5 mice. […] Analysis by Flow Cytometry: […] The expression of T-cell subpopulation markers (CD3, CD4, and CD8) and activation markers (CD69 and CD25) on thymic cells and splenocytes was studied ex vivo 72 hours after the last treatment with SCV-07. […] The expression of the CD69 marker increased after oral administration of SCV-07 tablets at doses of 0.1 and 1.0 μg/kg of body mass as well as after i/p administration at a dose of 1.0 μg/kg.
# [5] = tested on: IFN-γ production by ConA-stimulated splenocytes; assay: IFN-γ production by ConA-stimulated splenocytes (EIA); assay type: in vivo, mice
# [6] = Healthy of group 3 after vaccination
# [7] = Patients of group 2 (SCV-07 + vaccine), After vaccination
# [8] = ConA 1 μg/ml, 0.01 μg/kg per os
# [9] = ConA 1 μg/ml, 10.0 μg/kg per os
# [10] = ConA 1 μg/ml, 100.0 μg/kg per os
# [11] = Spontaneous, 100.0 μg/kg per os
# [12] = Group 2 (patients with infectious syndrome, hepatitis B vaccination with SCV-07), after vaccination, n = 16, M ± m
smiles,measurement,setting,value
"N[C@H](CCC(=O)N[C@@H](Cc1c[nH]c2ccccc12)C(=O)O)C(=O)O [SCV-07, γ-D-glutamyl-L-tryptophan]",CD3+ (%),[1]; [6],33.10 ± 1.88%
same,CD4+ (%),[1]; [6],22.86 ± 1.94%
same,CD4+/CD8+ conv. units,[1]; [6],1.203 ± 0.094 conv. units
same,CD8+ (%),[1]; [6],19.71 ± 1.53%
same,CD16+ (%),[1]; [6],15.19 ± 1.24%
same,CD95+ (%),[1]; [6],14.62 ± 1.60%
same,CD3+ (%),[1]; [7],29.60 ± 2.41%
same,CD4+ (%),[1]; [7],20.13 ± 1.65%
same,CD4+/CD8+ conv. units,[1]; [7],1.111 ± 0.086 conv. units
same,CD8+ (%),[1]; [7],18.27 ± 1.01%
same,CD16+ (%),[1]; [7],13.07 ± 1.18%
same,CD95+ (%),[1]; [7],12.60 ± 1.18%
same,"IL-2 production (U/ml), M ± SD",[2]; [8],10.4 ± 1.1 U/ml
same,"IL-2 production (U/ml), M ± SD","[2]; ConA 1 μg/ml, 0.1 μg/kg i/p",16.1 ± 0.8 U/ml
same,"IL-2 production (U/ml), M ± SD","[2]; ConA 1 μg/ml, 0.1 μg/kg per os",7.5 ± 0.1 U/ml
same,"IL-2 production (U/ml), M ± SD","[2]; ConA 1 μg/ml, 1.0 μg/kg i/p",15.6 ± 0.3 U/ml
same,"IL-2 production (U/ml), M ± SD","[2]; ConA 1 μg/ml, 1.0 μg/kg per os",10.0 ± 0.4 U/ml
same,"IL-2 production (U/ml), M ± SD",[2]; [9],9.1 ± 1.3 U/ml
same,"IL-2 production (U/ml), M ± SD",[2]; [10],14.9 ± 2.4 U/ml
same,"IL-2 production (U/ml), M ± SD","[2]; ConA 2 μg/ml, 0.01 μg/kg per os",66.9 ± 12.6 U/ml
same,"IL-2 production (U/ml), M ± SD","[2]; ConA 2 μg/ml, 0.1 μg/kg i/p",93.4 ± 28.3 U/ml
same,"IL-2 production (U/ml), M ± SD","[2]; ConA 2 μg/ml, 0.1 μg/kg per os",85.8 ± 6.6 U/ml
same,"IL-2 production (U/ml), M ± SD","[2]; ConA 2 μg/ml, 1.0 μg/kg i/p",99.3 ± 6.1 U/ml
same,"IL-2 production (U/ml), M ± SD","[2]; ConA 2 μg/ml, 1.0 μg/kg per os",60.8 ± 1.2 U/ml
same,"IL-2 production (U/ml), M ± SD","[2]; ConA 2 μg/ml, 10.0 μg/kg per os",56.4 ± 2.1 U/ml
same,"IL-2 production (U/ml), M ± SD","[2]; ConA 2 μg/ml, 100.0 μg/kg per os",79.3 ± 16.3 U/ml
same,"IL-2 production (U/ml), M ± SD","[2]; Spontaneous, 0.01 μg/kg per os",0.0 ± 0.0 U/ml
same,"IL-2 production (U/ml), M ± SD","[2]; Spontaneous, 0.1 μg/kg i/p",2.0 ± 0.3 U/ml
same,"IL-2 production (U/ml), M ± SD","[2]; Spontaneous, 0.1 μg/kg per os",0.0 ± 0.0 U/ml
same,"IL-2 production (U/ml), M ± SD","[2]; Spontaneous, 1.0 μg/kg i/p",2.7 ± 0.3 U/ml
same,"IL-2 production (U/ml), M ± SD","[2]; Spontaneous, 1.0 μg/kg per os",0.3 ± 0.5 U/ml
same,"IL-2 production (U/ml), M ± SD","[2]; Spontaneous, 10.0 μg/kg per os",0.0 ± 0.0 U/ml
same,"IL-2 production (U/ml), M ± SD",[2]; [11],0.3 ± 0.5 U/ml
same,Activity of phagocytosis %,[3]; [12],46.88 ± 4.92%
same,"Functional reserve, conv. units",[3]; [12],1.929 ± 0.225 conv. units
same,"Induced HCT-test, activity, %",[3]; [12],48.63 ± 4.62%
same,"Induced HCT-test, index, conv. units",[3]; [12],0.732 ± 0.08 conv. units
same,"Intensity of phagocytosis, conv. units",[3]; [12],1.44 ± 0.189 conv. units
same,"Lysosomal activity, conv. units",[3]; [12],198.7 ± 22.5 conv. units
same,Neutrophils %,[3]; [12],56.56 ± 2.07%
same,Neutrophils × 10^9/l,[3]; [12],3.403 ± 0.27 × 10^9/l
same,"Phagocytary number, conv. units",[3]; [12],2.92 ± 0.255 conv. units
same,"Spontaneous HCT-test, activity, %",[3]; [12],34.50 ± 5.62%
same,"Spontaneous HCT-test, index, conv.",[3]; [12],0.50 ± 0.093 conv.
same,spontaneous activity and intensity of neutrophils in the HCT reaction,"[3]; immunodeficient subjects with SCV-07 versus vaccine only and versus healthy, p<0.05",significantly lower
same,activities of neutrophils in the induced HCT test,"[3]; subjects who received SCV-07 versus vaccinated without immunomodulator, after vaccination, p<0.05",significantly higher
same,subpopulation composition of T-cells and expression of their activation markers,"[4]; thymic cells and splenocytes ex vivo 72 hours after the last treatment, i/p or per os, data not shown",No significant differences
same,"CD25-positive cells, %","[4]; 0.1 μg/kg Tablet, per os",0.7%
same,"CD69-positive, %","[4]; 0.1 μg/kg Tablet, per os",3.35%
same,"CD25-positive cells, %",[4]; 0.1 μg/kg i/p,0.30%
same,"CD69-positive, %",[4]; 0.1 μg/kg i/p,2.03%
same,"CD25-positive cells, %","[4]; 1.0 μg/kg Tablet, per os",0.79%
same,"CD69-positive, %","[4]; 1.0 μg/kg Tablet, per os",4.61%
same,"CD25-positive cells, %",[4]; 1.0 μg/kg i/p,1.72%
same,"CD69-positive, %",[4]; 1.0 μg/kg i/p,7.86%
same,"CD25-positive cells, %","[4]; 10.0 μg/kg Tablet, per os",0.71%
same,"CD69-positive, %","[4]; 10.0 μg/kg Tablet, per os",2.24%
same,IFN-γ,[5]; [8],15499 pg/mL
same,IFN-γ,"[5]; ConA 1 μg/ml, 0.1 μg/kg i/p",13089 pg/mL
same,IFN-γ,"[5]; ConA 1 μg/ml, 0.1 μg/kg per os",15695 pg/mL
same,IFN-γ,"[5]; ConA 1 μg/ml, 1.0 μg/kg i/p",30951 pg/mL
same,IFN-γ,"[5]; ConA 1 μg/ml, 1.0 μg/kg per os",11411 pg/mL
same,IFN-γ,[5]; [9],8238 pg/mL
same,IFN-γ,[5]; [10],12990 pg/mL
same,IFN-γ,"[5]; ConA 5 μg/ml, 0.01 μg/kg per os",63227 pg/mL
same,IFN-γ,"[5]; ConA 5 μg/ml, 0.1 μg/kg i/p",87051 pg/mL
same,IFN-γ,"[5]; ConA 5 μg/ml, 0.1 μg/kg per os",65692 pg/mL
same,IFN-γ,"[5]; ConA 5 μg/ml, 1.0 μg/kg i/p",142155 pg/mL
same,IFN-γ,"[5]; ConA 5 μg/ml, 1.0 μg/kg per os",47683 pg/mL
same,IFN-γ,"[5]; ConA 5 μg/ml, 10.0 μg/kg per os",66185 pg/mL
same,IFN-γ,"[5]; ConA 5 μg/ml, 100.0 μg/kg per os",43670 pg/mL
same,IFN-γ,"[5]; Spontaneous, 0.01 μg/kg per os",0 pg/mL
same,IFN-γ,"[5]; Spontaneous, 0.1 μg/kg i/p",1393 pg/mL
same,IFN-γ,"[5]; Spontaneous, 0.1 μg/kg per os",0 pg/mL
same,IFN-γ,"[5]; Spontaneous, 1.0 μg/kg i/p",1738 pg/mL
same,IFN-γ,"[5]; Spontaneous, 1.0 μg/kg per os",1629 pg/mL
same,IFN-γ,"[5]; Spontaneous, 10.0 μg/kg per os",0 pg/mL
same,IFN-γ,[5]; [11],0 pg/mL

# Reference: patent US20090074815A1, “Immunomodulator Compounds as Vaccine Enhancers” (SCICLONE PHARMACEUTICALS, INC., priority 2005, published 2009)
